What all share (assay): DTP human tumour cell line panel, 48 h
Assay [1] has as its system ACHN renal.
Assay [2] relates to DU-145 prostate.
The test system of assay [3] is HOP-62 NSCLC.
The subject of assay [4] is HOP-92 NSCLC.
Assay [5] concerns HT29 colon.
Assay [6] has as its system K-562 leukemia.
The subject of assay [7] is KM12 colon.
The subject of assay [8] is MALME-3M melanoma.
For assay [9], the system named is PC-3 prostate.
Assay [10] relates to RPMI-8226 leukemia.
Assay [11] concerns RXF 393 renal.
The subject of assay [12] is SK-MEL-2 melanoma.
In assay [13] the test system is SK-OV-3 ovarian.
In assay [14] the test system is SN12C renal.
Assay [15] concerns SNB-19 CNS.
The subject of assay [16] is SNB-75 CNS.
In assay [17] the test system is U251 CNS.
Assay [18] deals with UACC-257 melanoma.

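Results reflect a 48-hour exposure of cells in 96-well plates to compound at five concentrations. TGI denotes the concentration required for complete inhibition of growth.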

Take `CC[C@@H]1C(=O)OC[C@@H]1Cc1cncn1C`: the TGI in [1], in [2], in assay [3], in assay [4], in [5] and in assay [6] was greater than 100 µM each time. Further, the TGI in assay [7], in assay [8], in [9], in [10], in [11] and in assay [12] was greater than 100 µM each time. The TGI in assay [13], in assay [14], in assay [15], in assay [16], in [17] and in [18] was greater than 100 µM in each case.

`N#CC(C#N)=C/C=C(\Sc1c(Cl)c(Cl)nc(Cl)c1Cl)c1ccc(Cl)cc1`: the total growth inhibition concentration (TGI) in assay [1] is 37.8 µM; in assay [2], 47.5 µM; in [3], 96.6 µM; in assay [4], greater than 100 µM; in [5] it was greater than 100 µM; in assay [6] it was greater than 100 µM. Further, the concentration for total growth inhibition (TGI) in assay [7] is 51.5 µM; in [8], 46.6 µM; in assay [9] it was greater than 100 µM; in assay [10], greater than 100 µM; in assay [11], 40 µM; in assay [12], greater than 100 µM. Moreover, the TGI in assay [13] turned out to be 58.9 µM; in assay [14], 42.4 µM; in assay [15], 43 µM; in assay [16] it was 44.9 µM; in assay [17] it was 33.3 µM; in assay [18] it was 37.2 µM.

As to `CC1=CC[C@H](C(C)C)C(C(O)[C@@H](C)O[Si](c2ccccc2)(c2ccccc2)C(C)(C)C)C1=O` (stereo partly specified), the TGI in assay [1] is 31.1 µM; in assay [2], 65.4 µM; in assay [3], 47.6 µM; in [4] it was 37.9 µM; in assay [5], 31.7 µM; in assay [6], greater than 100 µM. Moreover, the TGI amounted to 48.3 µM in [7]; 52.8 µM in [8]; 33.6 µM in assay [9]; 48 µM in [10]; 30.8 µM in assay [11]; 32 µM in [12]. The TGI in assay [13] is 79.7 µM; in assay [14], 37.9 µM; in assay [15] it was 33.5 µM; in assay [16], 54.4 µM; in assay [17], 31.8 µM; in assay [18], 31.5 µM.

For the molecule `CC(C)(C)OCC1NC(=O)[C@@H]2Cc3c([nH]c4ccccc34)C(c3ccccc3)N2C1=O` (stereo partly specified), the TGI in [1], in assay [2], in assay [3], in assay [4], in [5] and in assay [6] was greater than 50 µM each time. Besides, the TGI was greater than 50 µM in assay [7]; greater than 50 µM in assay [8]; greater than 50 µM in assay [9]; greater than 33.7 µM in [10]; greater than 50 µM in assay [11]; greater than 50 µM in [12]. Moreover, the TGI in assay [13], in assay [14], in assay [15], in assay [16], in [17] and in assay [18] was greater than 50 µM each time.

For `CC1(C)CCc2c(c(N=Nc3ccc(S(N)(=O)=O)cc3)c3ccccc3c2O)O1`, the TGI in assay [1] is 56.7 µM; in [2], 25 µM; in assay [3], 20.7 µM; in assay [4], 37.5 µM; in [5], 38.1 µM; in assay [6] it was greater than 100 µM. Moreover, the total growth inhibition concentration (TGI) in [7] is 66.4 µM; in assay [8] it was 15.8 µM; in [9] it was 36.1 µM; in assay [10], greater than 100 µM; in [11], 24.6 µM; in assay [12], 83.8 µM. Moreover, the TGI in assay [13] turned out to be 16.2 µM; in assay [14], 23.2 µM; in assay [15], 39 µM; in assay [16], 16.6 µM; in assay [17] it was 20.9 µM; in [18], 21.3 µM.

Take `COC(=O)c1ccccc1C1CN=NC12Cc1ccccc1C2=O` (stereo unspecified): the concentration for total growth inhibition (TGI) in [1], in assay [2], in assay [3], in [4], in [5] and in assay [6] was greater than 100 µM each time. Also, the TGI in [7], in [8], in assay [9], in assay [10], in assay [11] and in assay [12] was greater than 100 µM each time. Moreover, the TGI in assay [13], in assay [14], in assay [15], in assay [16], in assay [17] and in assay [18] was greater than 100 µM each time.

Consider `O=C(N/N=C/c1c(-c2ccccc2)no[n+]1[O-])N1CCOCC1`, for which the TGI in [1], in assay [2], in assay [3], in [4], in assay [5] and in [6] was greater than 100 µM each time. For the same molecule, the TGI in assay [7], in assay [8], in [9], in assay [10], in assay [11] and in assay [12] was greater than 100 µM throughout. Further, the total growth inhibition concentration (TGI) in assay [13], in assay [14], in [15], in assay [16], in [17] and in assay [18] was greater than 100 µM in each case.

`COc1cccc2c1CCc1cc3c(N)nc(N)nc3nc1-2`: the TGI in [1] was 36.5 µM; in [2], 23.8 µM; in [3], 20.1 µM; in assay [4], 32.6 µM; in assay [5] it was 17.3 µM; in assay [6], greater than 21.4 µM. Also, the TGI was 37.5 µM in [7]; 10.3 µM in assay [8]; 18.3 µM in assay [9]; greater than 100 µM in assay [10]; 26.4 µM in [11]; 33.9 µM in [12]. Further, the TGI in assay [13] is 40.3 µM; in assay [14] it was 28.1 µM; in assay [15], 26.7 µM; in assay [16] it was 34.9 µM; in [17] it was greater than 38.3 µM; in assay [18] it was 31.4 µM.

As for `C=C1C(=O)O[C@@H]2[C@@H]3O[C@@H](C[C@@H]13)[C@](C)(O)CC/C=C(\C)CCC[C@@H]2C`, the TGI in [1] was 21.2 µM; in [2] it was 29.6 µM; in [3], 30.5 µM; in [4] it was 29.3 µM; in assay [5], greater than 100 µM; in [6], 85.5 µM. Also, the TGI in assay [7] came out at 43.1 µM; in [8], 26.8 µM; in assay [9], 22.9 µM; in [10], 20.6 µM; in assay [11], 30.1 µM; in assay [12], 27.7 µM. In addition, the concentration for total growth inhibition (TGI) in [13] came to 34 µM; in assay [14] it was 25.3 µM; in assay [15] it was 29.8 µM; in assay [16] it was 26.1 µM; in assay [17], 22.8 µM; in [18], 27 µM.

As to `c1ccc(C2=NCCN2)c(C2=NCCN2)c1`, the concentration for total growth inhibition (TGI) in [1], in assay [2], in assay [3], in assay [4], in assay [5] and in [6] was greater than 100 µM in each case. Further, the TGI in assay [7], in assay [8], in assay [9], in assay [10], in assay [11] and in assay [12] was greater than 100 µM throughout. In addition, the concentration for total growth inhibition (TGI) in assay [13], in [14], in assay [15], in assay [16], in [17] and in assay [18] was greater than 100 µM in each case.

For `Oc1cc2c3c(c1)CCCN3CCC2`, the TGI in assay [1], in assay [2], in assay [3], in assay [4], in [5] and in assay [6] was greater than 10 µM in each case. For the same molecule, the TGI in [7], in assay [8], in [9], in [10], in [11] and in assay [12] was greater than 10 µM each time. Moreover, the TGI in assay [13], in [14], in assay [15], in [16], in [17] and in assay [18] was greater than 10 µM throughout.

In the case of `O=C(c1c(F)c(F)c(F)c(F)c1F)N1CCN(C(=O)c2c(F)c(F)c(F)c(F)c2F)C1=S`, the TGI in [1] was 20.3 µM; in assay [2], 27.2 µM; in assay [3], 29.1 µM; in assay [4] it was 12.9 µM; in assay [5], 12.9 µM; in assay [6], greater than 100 µM. For the same molecule, the total growth inhibition concentration (TGI) in assay [7] is 18.8 µM; in assay [8], 15.8 µM; in [9] it was 21 µM; in [10] it was greater than 100 µM; in assay [11], 9.27 µM; in [12], 7.33 µM. Further, the TGI in assay [13] was 21.6 µM; in assay [14], 24.5 µM; in assay [15] it was 30.1 µM; in assay [16], 23 µM; in [17], 22.2 µM; in assay [18] it was 22 µM.

A word on the TGI: it is the concentration giving total growth inhibition.

Source of the values: PubChem BioAssay (NCI).
